Laboratory results reported in paper PMC7765920 (Molecules, 2020).
Read-outs that look alike come from different tables or passages of the source.

Experiments:
[1] = biological target: T1, GST-CLK1cat (amino acids 141–484 of human CLK1) (Homo sapiens, UniProt P49759); experiment: Kinase-GLO luminescent assay of CLK1 catalytic activity; type: biochemical; conditions: read-out: CLK1 residual activity
T1 construct: containing amino acids 141–484 of human CLK1; made in house; host or cells: E. coli
Experimental: (§1) Optimization of the compounds, however, aimed predominantly at elimination of MAO-A-inhibitory activity while keeping DYRK1A inhibitory potency, and not at achieving high selectivity for DYRK1A over CLK1. The tests were performed as described by us before in detail. Due to the very large number of test compounds (more than 60), a first screening was performed at a single inhibitor concentration of 1 µM.
(§2) Inhibitors were dissolved in DMSO at a concentration of 10 mM and stored at […]. Working solutions were prepared to achieve a final concentration of 1 µM in the enzyme assays.
(§3) Recombinant kinases were purified from E. coli as GST (glutathione S-transferase) fusion constructs by affinity adsorption to glutathione-Sepharose. […] Catalytic activity of the kinases was measured with the help of the Kinase-GLO^TM Luminescent Assay from Promega. Assays were performed in a total volume of 10 μL in kinase buffer (25 mM Hepes pH 7.4, 0.5 mM DTT, 5 mM MgCl2, 5 μM ATP) with appropriate peptide substrates (20 μM DYRKtide for the DYRKs and 100 μM DYRKtide for HIPK2, […]; or 100 μM RS peptide for CLK1, […]). Kinases amounts in the assays were adjusted so that approximately 90% of the ATP in the assay was consumed in control samples without inhibitor. Kinase reactions were incubated at room temperature for 30 min before 10 μL Kinase-GLO reagent was added for luminometric measurement of the ATP that was not consumed by the kinases. After incubation at room temperature for an additional 10 min, luminescence was recorded for 1 s (Berthold Orion Microplate Luminometer). ATP consumption in the control samples without inhibitor was set as 100% catalytic activity, and the inhibitory effects of the test compounds were calculated relative to this value.

human recombinant MAO-A [2] = biological target: T2, human recombinant MAO-A (Homo sapiens, UniProt P21397); experiment: MAO-GLO luminescence assay of MAO-A catalytic activity; type: biochemical; conditions: read-out: MAO-A residual activity
T2 sequence (P21397 1-527): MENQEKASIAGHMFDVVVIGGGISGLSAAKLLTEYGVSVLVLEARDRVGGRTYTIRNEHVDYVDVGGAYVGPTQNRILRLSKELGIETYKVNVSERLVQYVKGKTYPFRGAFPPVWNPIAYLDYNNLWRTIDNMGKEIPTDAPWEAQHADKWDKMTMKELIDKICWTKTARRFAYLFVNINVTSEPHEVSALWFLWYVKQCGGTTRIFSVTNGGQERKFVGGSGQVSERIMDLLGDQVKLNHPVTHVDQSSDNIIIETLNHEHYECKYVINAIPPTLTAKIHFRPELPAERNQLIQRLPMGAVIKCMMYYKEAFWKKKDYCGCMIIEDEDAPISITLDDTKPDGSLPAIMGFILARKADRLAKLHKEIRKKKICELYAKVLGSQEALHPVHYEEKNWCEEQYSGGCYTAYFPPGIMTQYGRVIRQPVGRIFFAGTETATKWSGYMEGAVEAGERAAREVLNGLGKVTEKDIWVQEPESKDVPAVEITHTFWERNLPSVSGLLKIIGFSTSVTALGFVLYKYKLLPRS
Experimental: as §1, §2
Catalytic activity of monoamine oxidase A (MAO-A) was measured by using the luminescence-based MAO-GLO^TM Assay from Promega. Recombinant MAO-A converts a luminogenic MAO substrate into luciferin, which is, in turn, luminometrically detected in a luciferase reaction. The amount of light produced is directly proportional to MAO activity. […] Inhibitory effects of the tested compounds were calculated relative to the activity of control reactions that were run in the absence of inhibitors.

[3] = biological target: T3, GST-DYRK1A-ΔC (amino acids 1–499 of rat DYRK1A) (Rattus norvegicus, UniProt Q63470); experiment: Kinase-GLO luminescent assay of DYRK1A catalytic activity; type: biochemical; conditions: read-out: DYRK1A residual activity
T3 construct: containing amino acids 1–499 of rat DYRK1A; made in house; host or cells: E. coli
Experimental: as §1, §2, §3

[4] = test system: GST-DYRK1A-ΔC (amino acids 1–499 of rat DYRK1A); experiment: as above; type: biochemical; conditions: ratio of the MAO-A and DYRK1A IC50 values of Table 2
MAO-A = test system: MAO-A; parameters: method as in PMID 21183355; conditions: compared with harmine; cited from earlier work
[5] = Solubility as observed in the enzyme assays; conditions: could not be analyzed properly in the enzyme assays
human recombinant MAO-A [6] = biological target: T2, human recombinant MAO-A; parameters: method as in PMID 26192590; conditions: 95% confidence intervals in parentheses; cited from earlier work
DYRK3 = conditions: compared with DYRK1A/DYRK1B; cited from earlier work
DYRK1B = conditions: ATP competitive; cited from earlier work
DYRK4 = conditions: cited from earlier work
DYRK2 = conditions: compared with DYRK1A/DYRK1B; cited from earlier work
DYRK1A = conditions: ATP competitive; cited from earlier work
[7] = 1 µM inhibitor concentration, residual activity relative to control without inhibitor

T1 sequence (P49759 141-484): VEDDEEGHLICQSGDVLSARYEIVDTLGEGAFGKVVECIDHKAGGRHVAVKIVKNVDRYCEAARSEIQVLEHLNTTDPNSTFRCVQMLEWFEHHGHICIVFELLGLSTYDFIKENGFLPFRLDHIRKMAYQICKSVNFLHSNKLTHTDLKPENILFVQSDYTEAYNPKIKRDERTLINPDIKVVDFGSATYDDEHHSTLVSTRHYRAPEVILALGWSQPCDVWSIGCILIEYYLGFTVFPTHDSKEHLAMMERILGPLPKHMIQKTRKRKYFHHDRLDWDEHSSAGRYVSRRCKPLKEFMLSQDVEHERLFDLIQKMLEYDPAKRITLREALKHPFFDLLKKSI

Compound `COc1ccc2c3ccnc(C)c3n(CC#N)c2c1` [AnnH31, 2-(7-Methoxy-1-methyl-9H-pyrido[3,4-b]indol-9-yl)-acetonitrile] has a remaining activity at 1 µM [1, 7] of 11%, a remaining activity at 1 µM (human recombinant MAO-A [2]; [7]) of 75% and a remaining activity at 1 µM [3, 7] of 8%. For the same compound, the “Selectivity for DYRK1A over MAO-A” value [4] was 40.

For `Cc1nccc2c1[nH]c1cc(OCCN(C)C)ccc12` [AnnH62], the “Factor of reduction of MAO-A inhibition” value (MAO-A) is given as 60, the remaining activity at 1 µM [1, 7] is given as 100% and the remaining activity at 1 µM (human recombinant MAO-A [2]; [7]) is given as 22%. It also gave a remaining activity at 1 µM [3, 7] of 95%.

For `O=c1[nH]ccc2c1[nH]c1c(Cl)c(Cl)ccc12` [AnnH65, 7,8-Dichloro-2,9-dihydro-1H-pydrido[3,4-b]indol-1-one], the Solubility [5] was “very poor” and the remaining activity at 1 µM [3, 7] was 100%.

In the case of `COc1ccc2c3ccnc(Cl)c3n(CC#N)c2c1` [AnnH75, 2-(1-Chloro-7-methoxy-9H-pyrido[3,4-b]indol-9-yl)acetonitrile], the IC50 (human recombinant MAO-A [6]) is listed as > 10000 nM, the remaining activity at 1 µM (human recombinant MAO-A [2]; [7]) is listed as 119% and the remaining activity at 1 µM [3] is listed as 10%.

For `COc1ccc2c(c1)[nH]c1c(C)nccc12` [harmine], the DYRK3 inhibition (DYRK3) is given as “only inhibited at much higher concentrations”, the remaining activity at 1 µM [1] is given as 23% and the remaining activity at 1 µM (human recombinant MAO-A [2]) is given as 3%. The remaining activity at 1 µM [3] was 27%, the IC50 (DYRK1B) was 33 to 170 nM and the DYRK4 inhibition (DYRK4) was “basically resistant”. For the same compound, the DYRK2 inhibition (DYRK2) was “only inhibited at much higher concentrations” and the IC50 (DYRK1A) was […].
